Reference: patent US20120232107A1, “NON-PEPTIDE ANTAGONISTS OF GASTRIN RELEASING PEPTIDE” (The Government of the United States of America as …, priority 2003, published 2012)
“Also recorded” adds a separate entry of the source. Where two headings read alike, the source gives them in different places. Ends that are not written are not given here.

Columns and labels:
[1] = tested on: normotensive Lewis/ssncr rats; assay: Measurement of blood pressure in vivo, normotensive Lewis/ssncr rats; design: species or system rat; details: for Biological activity (blood pressure): AM antagonists, 20 nmols/Kg iv; for Biological activity: negative modulators of AM
Description: (§1) AM is a potent and long-lasting vasodilator Therefore it was expected that AM antagonists would elevate blood pressure and AM superagonists would decrease it further. In consequence, suspected antagonists were analyzed in normotensive rats (10-week-old Lewis/ssncr males, SAIC, Frederick, Md.) and suspected superagonists in hypertensive animals (10-week-old SHR males, Taconic Farms, Germantown, N.Y.).
(§2) Animals were anaesthetized with 3% halothane, intubated, and maintained with 1% halothane in 70% nitrous oxide and 30% oxygen (VMS Anesthesia Machine, Matrx, Medical Inc., Orchard Park, N.Y.) at 82 strokes/min. Rectal temperature was monitored through the experiment. A PE50 catheter was placed on the right femoral artery and arterial blood pressure was recorded through a P23XL transducer (Grass Instruments, Quincy, Mass.). Peptides and small molecules were injected into the right femoral vein through another catheter. All procedures were performed under a protocol approved by the National Institutes of Health.

AM [2] = target: T1, AM (Homo sapiens, UniProt P35318); assay: cAMP analysis for AM in Rat2 cells; assay type: cell-based, rat; details: for variation of intracellular cAMP levels: Rat2 cells; for Action on second messengers: peptide AM, cAMP induced by 100 nM AM in Rat2 cells; for Response to second messengers: peptide target AM
T1 construct: AM is a 52 amino acid peptide; purchased Peninsula (S. Carlos, Calif.); host or cells: synthetic peptide
T1 sequence (P35318 95-146): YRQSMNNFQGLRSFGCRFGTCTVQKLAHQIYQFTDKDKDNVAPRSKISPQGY
Description: This cell line was obtained from the American Tissue Culture Collection (ATCC, Manassas, Va.) and maintained in RPMI-1640 supplemented with 10% fetal bovine serum (FBS, Invitrogen, Carlsbad, Calif.). Cells were seeded in 24-well plates at 2×10^4 cells/well and incubated at 37° C. in 5% CO2 until they reached 80% confluency. Before the assay, cells were incubated for 15 min in TIS medium (RPMI-1640 plus 10 μg/ml transferrin, 10 μg/ml insulin, and 50 nM sodium selenite) containing 1% BSA, 1 mg/ml bacitracin, and 100 μM isobutylmethylxanthine. Peptides and small molecules were applied in the same medium for 5 min at the indicated concentrations in a volume of 250 μl. The reaction was terminated by adding an equal volume of ice-cold ethanol. cAMP contents were measured using the Biotrac cAMP radioimmunoassay (Amersham Biosciences, Piscataway, N.J.), as described (Pio et al. (2001) J. Biol. Chem. 276, 12292-12300).

AM [3] = target: T1, AM; assay: Surface plasmon resonance binding to immobilized AM; details: for Binding to AM kd: kinetic dissociation constant; for kon: read-out: Binding to AM ka; for Binding to AM KA: thermodynamic association constant
Description: Characterization of the binding between AM and the small molecules was performed immobilizing 3 μg of AM on a CM5 sensor chip by N-hydroxysuccinimide activation, followed by covalent amino coupling of the peptide to the surface, using BIAcore 3000 (Piscataway, N.J.). The remaining free surface was blocked with 1 mM ethanolamine and the matrix washed with 0.5 M NaCl solution and then re-equilibrated with binding buffer (1:200 DMSO in PBS). Eight different dilutions of each small molecule were prepared in binding buffer with concentrations ranging from 0 to 10 μM and injected from low to high concentration. Each injection was followed by a matrix regeneration step. Mass transfer control experiments were performed by injecting the same concentration of each small molecule at different flow rates (5, 15, and 75 μl/min). The data were then fitted to several models for a kinetic analysis and the binding constants calculated. The best fittings were obtained with a simple 1:1 Langmuir model.

GRP [4] = target: T2, GRP (Homo sapiens, UniProt P07492); assay: IP3 analysis for GRP in H-1299 cells; assay type: cell-based; details: for Action on second messengers: peptide GRP, IP3 or Ca2+ levels induced by GRP in H1299 cells
T2 construct: GRP is a 27 amino acid peptide; purchased Peninsula (S. Carlos, Calif.); host or cells: synthetic peptide
T2 sequence (P07492 24-50 limits assumed): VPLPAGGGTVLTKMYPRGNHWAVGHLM
Description: This cell line was obtained from ATCC and cultured as the other cell lines. The signal transduction pathway for GRP includes elevation of intracellular levels of IP3 and Ca^2+ and these were investigated as previously shown (Ryan et al. (1998) J. Biol. Chem., 273, 13613-13624). Briefly, to quantify IP3, contents cells were subcultured into 24-well plates (5×10^4 cells/well). After a 24 h incubation period at 37° C., the cells were incubated with 3 μCi/ml myo-[^3H]inositol in growth medium supplemented with 2% FBS for an additional 24 h. Incubation volumes were 500 μl of assay buffer/well containing 135 mM sodium chloride, 20 mM HEPES (pH 7.4), 2 mM calcium chloride, 1.2 mM magnesium sulfate, 1 mM EGTA, 20 mM lithium chloride, 11.1 mM glucose, and 0.05% BSA (v/v) with or without any of the molecules studied at 37° C. for 30 min. Experiments were terminated with 1 ml of ice-cold hydrochloric acid/methanol (0.1%, v/v). [^3H]IP3 was eluted off Dowex AG-1-X8 anion exchange columns with 2 ml of 1 mM ammonium formate and 100 mM formic acid. Each of the eluates was collected and mixed with 10 ml of scintillation mixture (BioSafe, Research Products International Corp, Mount Prospect, Ill.), and the radioactivity was measured in a LS 3801 β counter (Beckman, Somerset, N.J.).

GRP [5] = target: T2, GRP; assay: Ca2+ analysis for GRP in H-1299 cells; assay type: cell-based
Description: After washing two times with TIS, 2 ml of cell suspension were placed in a Delta PTI Scan 1 spectrofluorimeter (Photon Technology International, South Brunswick, N.J.) equipped with a stir bar and water bath (37° C.). Fluorescence was measured at dual excitation wavelengths of 340 nm and 380 nm using an emission wavelength of 510 nm.

hypertensive SHR rats = assay: Measurement of blood pressure in vivo, hypertensive SHR rats; design: species or system rat; details: for decrease in blood pressure from basal levels: 20 nmols/Kg intravenous; for decrease in blood pressure from basal levels / Biological activity (blood pressure): hypertensive rats; for Biological activity (blood pressure): AM superagonists, 20 nmols/Kg iv
Description: as §1, §2

AM [6] = target: T1, AM; assay: Primary screening: interference with binding of AM to its blocking monoclonal antibody; details: 1 μM compound
Description: Human synthetic AM was solid-phased into PVC 96-well plates (Fisher Scientific, Pittsburgh, Pa.) by incubating 50 μl of AM (at 1 nmols/μl) per well for 1 h. To solid-phase […] into the plates, these were previously treated with glutaraldehyde as described (Kasprzyk et al. (1988) Anal. Biochem. 174, 224-234). After discarding the coating solution, the plates were blocked with 200 μl per well of 1% bovine serum albumin (BSA) in phosphate buffer saline (PBS). After 1 h, this solution was aspirated off and 50 μl containing 1 μM of one of the compounds of the library in PBS was added per well. Immediately after, 50 μl of labeled antibody (at 2.4 μg/ml) were added on each well and the solution was allowed to react for 1 h. Following 3 thorough washes with 1% BSA in PBS to remove the unbound antibodies, peroxidase activity was developed using o-phenylenediamine dihydrochloride (Sigma) as a substrate. The reaction product was quantified with a plate reader (Spectra Rainbow, Tecan, Austria) at 450 nm. Each plate contained several internal controls including wells without any coating that are used to calculate non-specific binding; wells where no potential antagonists were added, which provided maximum binding; and wells where the unlabeled antibody (at 1.2 μg/ml) substituted the small molecule, as a positive inhibition control (FIG. 1B). […]

[7] = tested on: Bovine retinal microvascular endothelial cells; assay: Cord formation assay in Matrigel; assay type: cell-based; details: 5 nM GRP alone
Description: Formation of tube-like structures was performed as described in Kubota et al. (1988) J. Cell Biol. 107, 1589-1598; Nam et al. (2003) Phytother. Res. 17, 107-111; and Macpherson et al. (2003) Mol Cancer Ther 2, 845-54. Briefly, a thin layer of Matrigel (Collaborative Biomedical Products, Bedford, Mass.) was allowed to polymerize at the bottom of 24-well plates. […] After an overnight incubation at 37° C., the tubular structures were photographed (3 pictures per well at 10×) and the number of knots per photographic field were counted as a measure of lattice complexity.

GRP-induced angiogenesis = assay: Directed in vivo angiogenesis assay (DIVAA); design: species or system mice; details: 1 nM GRP
Description: Analysis and quantitation of angiogenesis was done using DIVAA as previously described (Martinez et al. (2002) J Natl Cancer Inst 94, 1226-37). Briefly, 10 mm long surgical-grade silicone tubes with only one end open (angioreactors) were filled with 20 μl of matrigel alone or mixed with GRP and the small molecules at the indicated concentrations. After the matrigel solidified, the angioreactors were implanted into the dorsal flanks of athymic nude mice (NCI colony). After 11 days, the mice were injected iv with 25 mg/ml FITC-dextran (100 μl/mouse, Sigma) 20 min before removing angioreactors. Quantitation of neovascularization in the angioreactors was determined as the amount of fluorescence trapped in the implants and was measured in a HP Spectrophotometer (Perkin Elmer).

[8] = unit inferred, read-out: calculated KD

## CCN1CCC(O)(C(C(=O)O)c2ccccc2)CC1 (stereo not drawn) [compound 16311]
[1]; 20 nmols/Kg intravenous, normotensive rats
  elevation in blood pressure, difference from basal levels: 127±47 mm Hg
[1]; normotensive rats
  Biological activity (blood pressure): Elevates blood
[1]
  Biological activity: Vasodilator
AM [2]; in the presence of 100 nM AM
  variation of intracellular cAMP levels: most active antagonists
AM [2]
  Action on second messengers: Antagonists
  Response to second messengers: Neg. modul.
AM [3]
  Binding to AM kd: 1.02e-05 s⁻¹
  kon: 1550 M⁻¹ s⁻¹
  Binding to AM KA: 1.52e+08 M⁻¹
AM [3]; [8]
  Kd: 6.56 nM

## CCN(CC)CCC(O)(Cc1ccccc1)C(C(=O)O)c1ccccc1 (stereo not drawn) [compound 50161]
AM [2]; in the presence of 100 nM AM
  variation of intracellular cAMP levels: most active antagonists
AM [2]
  Action on second messengers: Antagonists

## Oc1c[n+](CC[n+]2cc(O)on2)no1 [compound 54671]
GRP [4]
  Action on second messengers: Antagonists
GRP [4]; peptide target GRP
  Response to second messengers: Neg. modul.
GRP [5]; H1299 cells pre-exposed to compound (1 min)
  Ca2+ response elicited by 1 nM GRP: dramatically reduces
AM [3]; immobilized AM
  Binding to AM: not to bind; also recorded: No binding

## CS(=O)(=O)OC1CN2CCC1CC2 (stereo not drawn) [compound 79422]
AM [2]; in the presence of 100 nM AM
  variation of intracellular cAMP levels: antagonist
AM [2]
  Action on second messengers: Antagonists

## OC(COc1ccccc1)CN1CCCCC1 (stereo not drawn) [compound 89435]
[1]; normotensive rats
  Biological activity (blood pressure): Elevates blood
[1]
  Biological activity: Vasodilator
AM [2]; in the presence of 100 nM AM
  variation of intracellular cAMP levels: most active antagonists
AM [2]
  Action on second messengers: Antagonists
  Response to second messengers: Neg. modul.
AM [3]
  Binding to AM kd: 0.000871 s⁻¹
  kon: 1020 M⁻¹ s⁻¹
  Binding to AM KA: 1.18e+06 M⁻¹
AM [3]; thermodynamic dissociation constant, read-out: Binding to AM KD
  Kd: 851 nM

## OCCCN=C1CCCCC1 [compound 128911]
Hypertensive SHR rats
  decrease in blood pressure from basal levels: 62±21 mm Hg
  Biological activity (blood pressure): Reduces blood
Hypertensive SHR rats; positive modulator of AM
  Biological activity: Vasopressor
AM [2]
  Action on second messengers: Superagonists
  Response to second messengers: Posit. modul.
AM [3]
  Binding to AM kd: 0.000892 s⁻¹
  kon: 304 M⁻¹ s⁻¹
  Binding to AM KA: 341000 M⁻¹
AM [3]; [8]
  Kd: 2930 nM

## Nc1nc(=O)c2[nH]cnc2n1O [compound 145425]
Hypertensive SHR rats
  decrease in blood pressure from basal levels: 55±24 mm Hg
  Biological activity (blood pressure): Reduces blood
AM [2]
  Action on second messengers: Superagonists

## O=NN(Cc1ccc(Cl)cc1)C(C(=O)O)c1ccccc1 (stereo not drawn) [compound 372874]
GRP [4]
  Action on second messengers: Superagonist

## Nn1c(CCCCCCCCc2nnc(COc3ccc4ccccc4c3O)n2N)nnc1COc1ccc2ccccc2c1O [compound 697162]
AM [2]
  Action on second messengers: Superagonists

## c1ccc(Nn2c(CCCCCCCCc3nnc(COc4ccccc4)n3Nc3ccccc3)nnc2COc2ccccc2)cc1 [compound 697165]
AM [6]
  competition with labeled blocking monoclonal antibody for AM-coated plate: successful competitors
AM [2]; in the presence of 100 nM AM
  dose dependence of cAMP elevation: dose-dependent elevation of cAMP
  variation of intracellular cAMP levels: superagonist
AM [2]
  Action on second messengers: Superagonists

## GRP: Synthetic human gastrin releasing peptide, 27 amino acid peptide hormone (VPLPAGGGTVLTKMYPRGNHWAVGHLM; ends and bridges not checked; UniProt P07492 24-50, looked up) [reference compound]
GRP [5]; 1 nM GRP alone, H1299 cells
  intracellular Ca2+: marked elevation
[7]
  number of knots per photographic field: 37±5
GRP-induced angiogenesis
  angiogenic potential in vivo: exhibits angiogenic potential in vivo
